Legend:
Balb/c mice = test: Forced-swim test in Balb/c mice; type: in vivo, mouse; settings: for duration of immobility in the forced-swim test: acute, i.p. 30 min prior; for immobility in the forced-swim test vs vehicle: subchronic, i.p. 23, 5 and 1 hr prior
ICR mice = test: Forced-swim test in ICR mice; type: in vivo, mouse; settings: for immobility in the forced-swim test vs vehicle: 3 mg/kg, P < 0.05; for duration of immobility in the forced-swim test: doses of 0.3 and 3 mg/kg
[1] = Mouse liver microsome stability assay; type: in vitro ADME; settings: mouse liver microsomes + NADPH, 40 µM compound, 37 °C
Human PDE4D3 = Human PDE4D3 (Homo sapiens, UniProt Q08499); test: Inhibition of cAMP hydrolysis by recombinant PDE4D3; type: biochemical; settings: read-out: Human PDE4D3 Ki, recombinant enzyme
Chain of Human PDE4D3 (Q08499 1-673 isoform Q08499-2): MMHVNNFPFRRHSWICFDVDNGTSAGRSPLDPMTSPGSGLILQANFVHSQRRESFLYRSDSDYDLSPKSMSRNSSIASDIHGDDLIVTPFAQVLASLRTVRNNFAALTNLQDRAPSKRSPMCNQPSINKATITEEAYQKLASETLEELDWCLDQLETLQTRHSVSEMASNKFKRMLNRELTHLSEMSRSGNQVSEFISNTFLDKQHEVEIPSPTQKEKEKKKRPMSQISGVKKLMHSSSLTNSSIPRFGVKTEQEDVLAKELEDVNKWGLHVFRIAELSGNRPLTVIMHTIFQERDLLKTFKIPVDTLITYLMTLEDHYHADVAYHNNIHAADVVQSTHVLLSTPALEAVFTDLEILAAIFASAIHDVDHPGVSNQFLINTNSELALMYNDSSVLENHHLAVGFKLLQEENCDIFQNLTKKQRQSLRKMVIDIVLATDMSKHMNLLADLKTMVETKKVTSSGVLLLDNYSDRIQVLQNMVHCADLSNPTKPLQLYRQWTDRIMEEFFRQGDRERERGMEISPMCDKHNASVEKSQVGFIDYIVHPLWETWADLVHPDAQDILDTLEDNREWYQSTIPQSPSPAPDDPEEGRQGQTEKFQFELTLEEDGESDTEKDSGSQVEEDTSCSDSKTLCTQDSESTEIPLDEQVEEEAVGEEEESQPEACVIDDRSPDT

[2] = Human liver microsome stability assay; type: in vitro ADME; settings: human liver microsomes + NADPH, 40 µM compound, 37 °C
[3] = ICR mice, acute, i.p. 30 min prior

Structure (SMILES): COc1ccc(F)cc1CCC1CCC(CCN)O1 (stereo not drawn) [Compound 14, 2-{5-[3-(5-Fluoro-2-methoxy-phenyl)-ethyl]-tetrahydro-furan-2-yl}-ethylamine]
- duration of immobility in the forced-swim test (Balb/c mice; 10 mg/kg): did not markedly alter the duration of immobility
- immobility in the forced-swim test vs vehicle (Balb/c mice; 10 mg/kg): did not change immobility
- immobility in the forced-swim test (ICR mice; ICR mice, acute, i.p. 30 min prior, 10 and 30 mg/kg): tended to decrease immobility, but this effect was not statistically significant

Structure (SMILES): CNCCC1CCC(CCc2cc(F)ccc2OC)O1 (stereo not drawn) [Compound 24]
- MLM t1/2 [1]: 58.5 min

Structure (SMILES): COc1ccc(C2CNC(=O)C2)cc1OC1CCCC1 (stereo not drawn) [Rolipram, reference compound]
- effect in the forced-swim test (ICR mice; acute treatment 0.5 mg/kg, data not shown): did not alter FST behavior

Structure (SMILES): COc1ccc(C2=NNC(=O)C3CC=CCC23)cc1OC (stereo not drawn) [Compound 19, 4-(3,4-Dimethoxy-phenyl)-4a,5,8,8a-tetrahydro-2H-phthalazin-1-one, reference compound]
- Ki (Human PDE4D3): 6.3 nM
- immobility in the forced-swim test vs vehicle (ICR mice; [3]): significantly decreased immobility
- duration of immobility in the forced-swim test (ICR mice; [3]): decreased duration of immobility in a dose-dependent manner

Structure (SMILES): COc1ccc(F)cc1CCCC1CCC(CCN)O1 (stereo not drawn) [Compound 15, 2-{5-[3-(5-Fluoro-2-methoxy-phenyl)-propyl]-tetrahydro-furan-2-yl}-ethylamine]
- duration of immobility in the forced-swim test (Balb/c mice; 10 mg/kg): did not markedly alter the duration of immobility
- immobility in the forced-swim test vs vehicle (Balb/c mice; 1 mg/kg): did not change immobility

Structure (SMILES): COc1ccc(F)c(CCCC2CCC(CCNCCCCCN3N=C(c4ccc(OC)c(OC)c4)[C@H]4CC=CC[C@H]4C3=O)O2)c1 (stereo partly drawn) [Compound 22]
- HLM t1/2 [2]: No detectable metabolic instability

Structure (SMILES): COc1ccc(F)cc1CCC1CCC(CCNCCCCCN2N=C(c3ccc(OC)c(OC)c3)[C@H]3CC=CC[C@H]3C2=O)O1 (stereo partly drawn) [Compound 21]
- immobility in the forced-swim test vs vehicle (Balb/c mice; 1 mg/kg): did not change immobility
- immobility in the forced-swim test vs vehicle (ICR mice; [3]): significantly decreased immobility
- duration of immobility in the forced-swim test (ICR mice; [3]): decreased duration of immobility in a dose-dependent manner
- HLM t1/2 [2]: not detectably metabolized

From publication PMC2762440 (Journal of medicinal chemistry, 2009)
